Patent US20230365546A1, “5-SUBSTITUTED INDOLE 3-AMIDE DERIVATIVES, PREPARATION METHOD AND USE THEREOF” (ORIGIANT PHARMACEUTICAL CO., LTD, priority 2020, published 2023)

Key:
[1] = In vivo pharmacokinetic study in rats; conditions: rat, plasma, oral, 10 mg/kg
Description: Blood was collected from rats at different times after administration at the following time points: 0.083 h, 0.25 h, 0.5 h, 1 h, 2 h, 4 h, 8 h, and 24 h after intravenous administration; 0.25 h, 0.5 h, 1 h, 2 h, 4 h, 6 h, 8 h, and 24 h after oral administration. About 0.20 mL of blood was collected via jugular vein or other suitable means for each sample at the corresponding time, with heparin sodium for anticoagulation; the blood sample was placed on ice after collection and centrifuged within 1 h to separate the plasma (centrifugation conditions: centrifugal force 6800 g, 6 min, 2-8° C.). The collected plasma samples were stored in a refrigerator at −80° C. before analysis, and the remaining plasma samples continued to be temporarily stored in the refrigerator at −80° C. for one month after analysis.
Pharmacokinetic parameters such as AUC (0-t), T1/2, Cmax, Tmax, and MRT were calculated using WinNonlin based on plasma concentration data at different time points. The plasma drug concentration-time curve was plotted with BLQ recorded as 0. For the calculation of pharmacokinetic parameters, the concentration before administration was calculated as 0; BLQ before Cmax (including “No peak”) was calculated as 0; no BLQ (including “No peak”) appeared after Cmax participated in the calculation. The experiment was completed by Shanghai Medicilon Inc.

[2] = target: PI3 Kinase (p110a(E545K)/p85a)(h) (Homo sapiens (Human), UniProt P42336, E545K); assay: Kinase Profiler 10 μM panel
Description: (§1) In vitro kinase assays were conducted using Kinase Profiler services provided by Eurofins. The experimental method was as follows: the small molecule compound to be tested (0.001-10 μM), the protein kinase to be tested were incubated with a buffer containing substrate, 10 mM magnesium acetate, and [γ-^33P-ATP], the reaction was started by adding Mg\TPmix, after incubation for a period of time at room temperature, a 3% phosphate solution was added to the buffer to stop the reaction. Subsequently, 10 μL of the reaction mixture was quantitatively pipetted onto P30 filter paper, which was washed three times with 75 mM phosphate solution and then once with methanol. The P30 filter paper was air-dried and scintillation fluid was added for scintillation counting.

Abl (Q252H)(h) = Abl (Q252H)(h) (Homo sapiens (Human), UniProt P00519, Q252H); assay: Kinase Profiler 10 μM panel
Description: as §1

Fms(Y969C)(h) = Fms(Y969C)(h) (Homo sapiens (Human), UniProt P07333, Y969C); assay: Kinase Profiler 10 μM panel
Description: as §1

ACTR2(h) = ACTR2(h) (Homo sapiens (Human), UniProt P27037); assay: Kinase Profiler 10 μM panel
Description: as §1

GRK3(h) = GRK3(h) (Homo sapiens (Human), UniProt P35626); assay: Kinase Profiler 10 μM panel
Description: as §1

AMPKα1(h) = AMPKα1(h) (Homo sapiens (Human), UniProt Q13131); assay: Kinase Profiler 10 μM panel
Description: as §1

AMPKα2(h) = AMPKα2(h) (Homo sapiens (Human), UniProt P54646); assay: Kinase Profiler 10 μM panel
Description: as §1

Pim-3(h) = Pim-3(h) (Homo sapiens (Human), UniProt Q86V86); assay: Kinase Profiler 10 μM panel
Description: as §1

PIP5K1a(h) = PIP5K1a(h) (Homo sapiens (Human), UniProt Q99755); assay: Kinase Profiler 10 μM panel
Description: as §1

ICK(h) = ICK(h) (Homo sapiens (Human), UniProt Q9UPZ9); assay: Kinase Profiler 10 μM panel
Description: as §1

PKCδ(h) = PKCδ(h) (Homo sapiens (Human), UniProt Q05655); assay: Kinase Profiler 10 μM panel
Description: as §1

BRK(h) = BRK(h) (Homo sapiens (Human), UniProt Q13882); assay: Kinase Profiler 10 μM panel
Description: as §1

CaMKIIβ(h) = CaMKIIβ(h) (Homo sapiens (Human), UniProt Q13554); assay: Kinase Profiler 10 μM panel
Description: as §1

JNK3(h) = JNK3(h) (Homo sapiens (Human), UniProt P53779); assay: Kinase Profiler 10 μM panel
Description: as §1

PRAK(h) = PRAK(h) (Homo sapiens (Human), UniProt Q8IW41); assay: Kinase Profiler 10 μM panel
Description: as §1

CDK1/cyclinB(h) = CDK1/cyclinB(h) (Homo sapiens (Human), UniProt P06493); assay: Kinase Profiler 10 μM panel
Description: as §1

MAPK2(h) = MAPK2(h) (Homo sapiens (Human), UniProt P28482); assay: Kinase Profiler 10 μM panel
Description: as §1

SAPK2a(T106M)(h) = SAPK2a(T106M)(h) (Homo sapiens (Human), UniProt Q16539, T106M); assay: Kinase Profiler 10 μM panel
Description: as §1

SAPK2b(h) = SAPK2b(h) (Homo sapiens (Human), UniProt Q15759); assay: Kinase Profiler 10 μM panel
Description: as §1

SAPK4(h) = SAPK4(h) (Homo sapiens (Human), UniProt O15264); assay: Kinase Profiler 10 μM panel
Description: as §1

TAF1L(h) = TAF1L(h) (Homo sapiens (Human), UniProt Q8IZX4); assay: Kinase Profiler 10 μM panel
Description: as §1

DCAMKL2(h) = DCAMKL2(h) (Homo sapiens (Human), UniProt Q8N568); assay: Kinase Profiler 10 μM panel
Description: as §1

DRAK1(h) = DRAK1(h) (Homo sapiens (Human), UniProt Q9UEE5); assay: Kinase Profiler 10 μM panel
Description: as §1

EphA4(h) = EphA4(h) (Homo sapiens (Human), UniProt P54764); assay: Kinase Profiler 10 μM panel
Description: as §1

PAK6(h) = PAK6(h) (Homo sapiens (Human), UniProt Q9NQU5); assay: Kinase Profiler 10 μM panel
Description: as §1

ZIPK(h) = ZIPK(h) (Homo sapiens (Human), UniProt O43293); assay: Kinase Profiler 10 μM panel
Description: as §1

Sequence of JNK3(h) (P53779 whole entry): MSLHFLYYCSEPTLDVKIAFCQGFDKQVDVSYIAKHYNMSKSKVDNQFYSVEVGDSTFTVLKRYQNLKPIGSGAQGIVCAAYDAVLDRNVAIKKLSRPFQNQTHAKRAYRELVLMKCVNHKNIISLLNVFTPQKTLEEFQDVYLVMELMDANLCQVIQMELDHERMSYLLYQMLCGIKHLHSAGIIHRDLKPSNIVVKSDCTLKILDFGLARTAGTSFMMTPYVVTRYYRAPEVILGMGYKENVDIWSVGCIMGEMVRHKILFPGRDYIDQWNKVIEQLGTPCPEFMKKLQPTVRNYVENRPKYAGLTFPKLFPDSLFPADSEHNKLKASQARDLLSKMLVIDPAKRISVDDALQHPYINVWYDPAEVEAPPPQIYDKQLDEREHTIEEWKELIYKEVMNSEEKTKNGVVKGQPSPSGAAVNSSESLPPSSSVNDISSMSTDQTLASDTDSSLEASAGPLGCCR
Sequence of PKCδ(h) (Q05655 whole entry): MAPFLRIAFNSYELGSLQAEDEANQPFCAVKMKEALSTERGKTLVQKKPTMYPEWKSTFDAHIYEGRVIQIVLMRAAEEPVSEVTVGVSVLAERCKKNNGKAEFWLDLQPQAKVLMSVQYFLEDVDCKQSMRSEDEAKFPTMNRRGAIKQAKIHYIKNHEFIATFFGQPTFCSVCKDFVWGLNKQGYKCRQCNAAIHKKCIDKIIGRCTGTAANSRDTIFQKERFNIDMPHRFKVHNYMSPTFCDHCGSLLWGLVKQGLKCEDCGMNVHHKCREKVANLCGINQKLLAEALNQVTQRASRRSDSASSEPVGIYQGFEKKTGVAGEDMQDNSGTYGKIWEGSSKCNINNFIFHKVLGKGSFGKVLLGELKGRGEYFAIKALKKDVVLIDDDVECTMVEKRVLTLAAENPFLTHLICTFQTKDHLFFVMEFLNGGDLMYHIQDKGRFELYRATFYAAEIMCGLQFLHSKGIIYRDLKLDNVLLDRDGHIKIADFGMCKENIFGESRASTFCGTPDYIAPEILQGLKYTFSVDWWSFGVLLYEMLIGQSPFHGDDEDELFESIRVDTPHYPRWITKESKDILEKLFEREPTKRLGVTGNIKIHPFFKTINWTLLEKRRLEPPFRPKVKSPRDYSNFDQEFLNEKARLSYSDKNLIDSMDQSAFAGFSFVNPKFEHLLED
Sequence of GRK3(h) (P35626 whole entry): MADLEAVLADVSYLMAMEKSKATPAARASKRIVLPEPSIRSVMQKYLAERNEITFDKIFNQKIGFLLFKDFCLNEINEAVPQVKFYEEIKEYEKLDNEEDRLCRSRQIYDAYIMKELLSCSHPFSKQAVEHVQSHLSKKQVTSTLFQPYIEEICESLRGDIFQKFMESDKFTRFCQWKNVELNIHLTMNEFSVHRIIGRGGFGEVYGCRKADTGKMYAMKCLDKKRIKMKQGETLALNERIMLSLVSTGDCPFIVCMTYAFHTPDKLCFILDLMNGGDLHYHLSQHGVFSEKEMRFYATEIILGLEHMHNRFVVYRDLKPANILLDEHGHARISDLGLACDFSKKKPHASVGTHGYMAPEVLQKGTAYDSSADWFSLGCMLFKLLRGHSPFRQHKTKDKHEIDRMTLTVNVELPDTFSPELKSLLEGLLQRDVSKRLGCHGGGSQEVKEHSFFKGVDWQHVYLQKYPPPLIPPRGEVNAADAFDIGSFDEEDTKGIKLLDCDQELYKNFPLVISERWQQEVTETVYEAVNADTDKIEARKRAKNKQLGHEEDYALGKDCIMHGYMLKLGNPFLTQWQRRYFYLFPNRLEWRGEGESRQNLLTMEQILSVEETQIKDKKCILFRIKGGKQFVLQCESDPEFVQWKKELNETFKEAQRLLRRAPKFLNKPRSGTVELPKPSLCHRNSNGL
Sequence of DRAK1(h) (Q9UEE5 whole entry): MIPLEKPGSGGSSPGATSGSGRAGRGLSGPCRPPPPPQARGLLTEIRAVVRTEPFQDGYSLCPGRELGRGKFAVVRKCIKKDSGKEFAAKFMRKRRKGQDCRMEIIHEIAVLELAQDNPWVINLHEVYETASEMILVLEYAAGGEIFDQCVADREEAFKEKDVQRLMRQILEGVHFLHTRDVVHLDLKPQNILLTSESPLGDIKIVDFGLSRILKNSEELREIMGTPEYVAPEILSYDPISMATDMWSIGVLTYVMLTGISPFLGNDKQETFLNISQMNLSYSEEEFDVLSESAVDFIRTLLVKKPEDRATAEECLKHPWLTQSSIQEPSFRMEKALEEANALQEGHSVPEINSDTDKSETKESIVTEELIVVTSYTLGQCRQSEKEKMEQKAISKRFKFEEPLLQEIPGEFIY
Sequence of CDK1/cyclinB(h) (P06493 whole entry): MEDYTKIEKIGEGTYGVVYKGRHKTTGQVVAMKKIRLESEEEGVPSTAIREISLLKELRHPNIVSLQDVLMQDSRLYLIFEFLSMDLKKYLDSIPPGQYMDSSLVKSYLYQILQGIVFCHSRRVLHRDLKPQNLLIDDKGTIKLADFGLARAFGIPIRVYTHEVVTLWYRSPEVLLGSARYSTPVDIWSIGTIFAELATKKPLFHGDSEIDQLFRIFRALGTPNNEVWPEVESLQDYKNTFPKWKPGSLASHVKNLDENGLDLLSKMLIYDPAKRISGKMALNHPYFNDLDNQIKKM
Sequence of CDK1/cyclinB(h) (P14635 whole entry partner): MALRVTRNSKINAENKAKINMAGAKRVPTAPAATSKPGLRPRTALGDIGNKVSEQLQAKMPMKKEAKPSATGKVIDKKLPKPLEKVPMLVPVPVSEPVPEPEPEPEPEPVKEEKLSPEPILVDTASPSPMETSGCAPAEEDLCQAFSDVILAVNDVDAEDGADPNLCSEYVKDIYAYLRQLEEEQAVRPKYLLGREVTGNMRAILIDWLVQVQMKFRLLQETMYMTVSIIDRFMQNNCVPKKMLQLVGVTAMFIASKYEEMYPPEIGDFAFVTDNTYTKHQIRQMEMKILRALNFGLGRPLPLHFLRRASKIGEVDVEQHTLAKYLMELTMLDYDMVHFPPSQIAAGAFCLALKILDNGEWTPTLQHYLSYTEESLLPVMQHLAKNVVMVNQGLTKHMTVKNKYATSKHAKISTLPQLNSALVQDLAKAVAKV
Sequence of MAPK2(h) (P28482 whole entry): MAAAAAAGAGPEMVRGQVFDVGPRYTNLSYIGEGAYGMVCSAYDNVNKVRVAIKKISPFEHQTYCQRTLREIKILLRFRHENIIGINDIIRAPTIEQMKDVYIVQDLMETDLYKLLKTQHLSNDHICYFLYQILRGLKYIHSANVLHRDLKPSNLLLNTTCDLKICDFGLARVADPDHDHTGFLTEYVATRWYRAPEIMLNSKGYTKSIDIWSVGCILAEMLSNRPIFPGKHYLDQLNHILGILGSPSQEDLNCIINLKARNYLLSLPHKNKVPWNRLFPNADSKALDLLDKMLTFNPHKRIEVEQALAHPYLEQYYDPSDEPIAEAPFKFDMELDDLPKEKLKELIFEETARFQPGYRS
Sequence of EphA4(h) (P54764 20-986): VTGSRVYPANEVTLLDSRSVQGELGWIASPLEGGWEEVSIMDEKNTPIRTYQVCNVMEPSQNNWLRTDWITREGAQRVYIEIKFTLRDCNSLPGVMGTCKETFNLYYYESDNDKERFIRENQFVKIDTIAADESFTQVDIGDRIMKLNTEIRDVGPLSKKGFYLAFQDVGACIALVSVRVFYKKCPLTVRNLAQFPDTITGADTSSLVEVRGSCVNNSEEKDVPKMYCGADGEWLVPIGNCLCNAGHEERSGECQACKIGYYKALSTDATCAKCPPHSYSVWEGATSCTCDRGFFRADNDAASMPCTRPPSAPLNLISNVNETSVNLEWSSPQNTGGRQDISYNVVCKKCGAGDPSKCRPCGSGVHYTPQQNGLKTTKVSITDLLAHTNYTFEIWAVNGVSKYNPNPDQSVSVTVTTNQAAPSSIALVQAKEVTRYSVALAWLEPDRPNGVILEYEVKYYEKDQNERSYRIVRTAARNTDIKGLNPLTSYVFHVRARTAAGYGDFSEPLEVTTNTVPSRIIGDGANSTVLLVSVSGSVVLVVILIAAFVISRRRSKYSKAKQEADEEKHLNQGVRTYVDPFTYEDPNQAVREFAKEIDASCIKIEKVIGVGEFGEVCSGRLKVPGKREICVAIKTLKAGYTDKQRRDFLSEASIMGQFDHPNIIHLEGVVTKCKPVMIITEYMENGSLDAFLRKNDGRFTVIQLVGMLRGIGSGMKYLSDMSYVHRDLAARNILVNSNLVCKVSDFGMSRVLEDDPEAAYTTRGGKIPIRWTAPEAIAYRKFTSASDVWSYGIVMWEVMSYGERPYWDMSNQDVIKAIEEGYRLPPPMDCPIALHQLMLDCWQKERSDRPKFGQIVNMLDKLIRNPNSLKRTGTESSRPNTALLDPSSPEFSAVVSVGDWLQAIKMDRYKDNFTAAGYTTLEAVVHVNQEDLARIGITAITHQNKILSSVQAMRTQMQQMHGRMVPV
Sequence of ICK(h) (Q9UPZ9 whole entry): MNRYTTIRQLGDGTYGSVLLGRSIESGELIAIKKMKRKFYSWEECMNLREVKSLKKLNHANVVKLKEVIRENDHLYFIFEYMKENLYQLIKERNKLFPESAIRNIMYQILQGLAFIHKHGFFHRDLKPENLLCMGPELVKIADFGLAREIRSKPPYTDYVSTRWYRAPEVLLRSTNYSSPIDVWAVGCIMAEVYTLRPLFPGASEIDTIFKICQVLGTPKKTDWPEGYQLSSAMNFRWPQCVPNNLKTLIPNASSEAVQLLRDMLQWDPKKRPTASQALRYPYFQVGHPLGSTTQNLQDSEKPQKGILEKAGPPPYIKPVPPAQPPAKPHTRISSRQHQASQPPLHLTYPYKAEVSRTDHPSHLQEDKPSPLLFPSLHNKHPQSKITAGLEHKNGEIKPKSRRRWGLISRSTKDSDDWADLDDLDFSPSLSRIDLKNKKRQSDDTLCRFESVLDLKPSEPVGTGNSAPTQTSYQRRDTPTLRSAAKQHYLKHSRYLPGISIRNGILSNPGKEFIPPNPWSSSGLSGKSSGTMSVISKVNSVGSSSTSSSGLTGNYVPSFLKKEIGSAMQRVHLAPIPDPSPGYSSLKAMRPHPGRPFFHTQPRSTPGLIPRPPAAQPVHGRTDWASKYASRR

C[C@H](NC(=O)c1cn(C)c2ccc(-c3ccn4nc(NC(=O)C5CC5)nc4c3)cc12)c1cccc(F)c1 [Compound 94, (S)-5-(2-(cyclopropanecarboxamido)-[1,2,4]triazolo[1,5-a]pyridin-7-yl)-N-(1-(3-fluorophenyl)ethyl)-1-methyl-1H-indole-3-carboxamide]
AUC(0-t) [1]: 1850 ng·h/mL | Cmax [1]: 330 ng/mL | Tmax [1]: 1.67 h | bioavailability [1]: 12.1% | half-life [1]: 7.02 h | Inhibition ratio/% [2]: 33% | Inhibition ratio/% (Abl (Q252H)(h)): 29% | Inhibition ratio/% (Fms(Y969C)(h)): 13% | Inhibition ratio/% (ACTR2(h)): −3% | Inhibition ratio/% (GRK3(h)): −12% | Inhibition ratio/% (AMPKα1(h)): 57% | Inhibition ratio/% (AMPKα2(h)): 16% | Inhibition ratio/% (Pim-3(h)): 32% | Inhibition ratio/% (PIP5K1a(h)): 16% | Inhibition ratio/% (ICK(h)): 52% | Inhibition ratio/% (PKCδ(h)): 48% | Inhibition ratio/% (BRK(h)): 47% | Inhibition ratio/% (CaMKIIβ(h)): 78% | Inhibition ratio/% (JNK3(h)): 40% | Inhibition ratio/% (PRAK(h)): 30% | Inhibition ratio/% (CDK1/cyclinB(h)): 78% | Inhibition ratio/% (MAPK2(h)): 40% | Inhibition ratio/% (SAPK2a(T106M)(h)): −20% | Inhibition ratio/% (SAPK2b(h)): 36% | Inhibition ratio/% (SAPK4(h)): 12% | Inhibition ratio/% (TAF1L(h)): 48% | Inhibition ratio/% (DCAMKL2(h)): 74% | Inhibition ratio/% (DRAK1(h)): 30% | Inhibition ratio/% (EphA4(h)): 11% | Inhibition ratio/% (PAK6(h)): 49% | Inhibition ratio/% (ZIPK(h)): 6%

C[C@H](NC(=O)c1c[nH]c2ccc(-c3ccc4nc(NC(=O)C5CC5)sc4c3)cc12)c1cccc(F)c1 [Compound 34, (S)-5-(2-(cyclopropanecarboxamido)benzo[d]thiazol-6-yl)-N-(1-(3-fluorophenyl)ethyl)-1H-indole-3-carboxamide]
AUC(0-t) [1]: 4450 ng·h/mL | Cmax [1]: 852 ng/mL | Tmax [1]: 4 h | bioavailability [1]: 7.89% | half-life [1]: 2.06 h | Inhibition ratio [2]: 32% | Inhibition ratio (Abl (Q252H)(h)): 97% | Inhibition ratio (Fms(Y969C)(h)): 18% | Inhibition ratio (ACTR2(h)): 6% | Inhibition ratio (GRK3(h)): −1% | Inhibition ratio (AMPKα1(h)): 4% | Inhibition ratio (AMPKα2(h)): 13% | Inhibition ratio (Pim-3(h)): 3% | Inhibition ratio (PIP5K1a(h)): 21% | Inhibition ratio (ICK(h)): 7% | Inhibition ratio (PKCδ(h)): 7% | Inhibition ratio (BRK(h)): 4% | Inhibition ratio (CaMKIIβ(h)): 21% | Inhibition ratio (JNK3(h)): 63% | Inhibition ratio (PRAK(h)): 27% | Inhibition ratio (CDK1/cyclinB(h)): 13% | Inhibition ratio (MAPK2(h)): 11% | Inhibition ratio (SAPK2a(T106M)(h)): 63% | Inhibition ratio (SAPK2b(h)): 12% | Inhibition ratio (SAPK4(h)): 94% | Inhibition ratio (TAF1L(h)): 58% | Inhibition ratio (DCAMKL2(h)): 6% | Inhibition ratio (DRAK1(h)): 38% | Inhibition ratio (EphA4(h)): 14% | Inhibition ratio (PAK6(h)): −14% | Inhibition ratio (ZIPK(h)): −4%
